EC50 data for 28 molecules are collected here from patent US11110082B2, “Tyrosine kinase inhibitors” (Rigel Pharmaceuticals, Inc., priority 2016, dated 2021).

This assay has as its target T1, MerTK (Homo sapiens, UniProt Q12866).
T1 construct: Seed HUVECs (10K cells/well) in EBM-2 complete media; host or cells: HUVEC (primary human umbilical vein endothelial cells)
T1 sequence (Q12866 21-999): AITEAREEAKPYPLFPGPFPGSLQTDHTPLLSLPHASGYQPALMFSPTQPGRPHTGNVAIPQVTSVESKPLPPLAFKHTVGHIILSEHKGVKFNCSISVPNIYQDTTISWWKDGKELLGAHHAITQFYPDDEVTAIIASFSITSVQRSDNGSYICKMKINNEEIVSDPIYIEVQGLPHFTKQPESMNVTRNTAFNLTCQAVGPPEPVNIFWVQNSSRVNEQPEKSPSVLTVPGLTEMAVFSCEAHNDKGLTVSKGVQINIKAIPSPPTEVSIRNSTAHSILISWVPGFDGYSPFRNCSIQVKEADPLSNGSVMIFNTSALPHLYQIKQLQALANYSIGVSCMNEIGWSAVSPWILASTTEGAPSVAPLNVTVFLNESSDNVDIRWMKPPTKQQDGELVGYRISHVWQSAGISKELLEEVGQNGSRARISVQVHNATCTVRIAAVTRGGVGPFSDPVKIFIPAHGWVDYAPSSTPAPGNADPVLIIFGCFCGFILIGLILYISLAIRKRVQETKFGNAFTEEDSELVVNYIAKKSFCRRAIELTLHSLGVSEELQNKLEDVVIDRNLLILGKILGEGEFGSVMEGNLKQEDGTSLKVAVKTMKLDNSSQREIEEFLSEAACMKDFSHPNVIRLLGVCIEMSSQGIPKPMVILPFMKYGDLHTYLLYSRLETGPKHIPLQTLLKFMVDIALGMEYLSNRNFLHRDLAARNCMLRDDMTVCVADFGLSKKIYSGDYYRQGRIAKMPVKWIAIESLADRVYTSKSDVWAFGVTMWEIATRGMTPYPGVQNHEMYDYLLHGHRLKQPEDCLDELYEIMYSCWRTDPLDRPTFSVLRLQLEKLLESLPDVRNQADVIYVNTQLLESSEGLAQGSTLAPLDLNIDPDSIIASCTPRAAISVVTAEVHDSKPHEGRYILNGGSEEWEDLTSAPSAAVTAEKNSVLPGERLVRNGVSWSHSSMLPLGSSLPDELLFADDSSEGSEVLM
Nature of the assay: PAKT HTRF-HUVEC assay (pAkt Ser473 HTRF after anti-human MerTK-XL stimulation). It is filed as cell-based. As to conditions: HUVEC cells, 1 hour compound, stimulated with anti-human MerTK-XL 1 ug/mL for 10 minutes, read-out: inhibition of MerTK. The procedure, abridged:
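HUVECs starved 3-4 h in basal medium, preincubated with compound 1 h at 37° C, then stimulated 10 min with cross-linked anti-human MerTK antibody (final 1 ug/mL). Lysates read for pAkt (Ser473) by HTRF; EC50 from curve fitting.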

Regarding `CN1CCN(Cc2ccc3c(c2)c(=O)n([C@H]2CC[C@H](O)CC2)c2nc(NC4CC4)ncc32)CC1` [Compound 196, trans-3-(Cyclopropylamino)-5-(4-hydroxycyclohexyl)-8-((4-methylpiperazin-1-yl)methyl)pyrimido[4,5-c]isoquinolin-6(5H)-one], the EC50 came to 240 nM.
As for `O=c1c2cc(CN3CCN(c4ccncc4)CC3)ccc2c2cnc(NC3CC(F)(F)C3)nc2n1[C@H]1CC[C@H](O)CC1` [Compound 212, trans-3-((3,3-Difluorocyclobutyl)amino)-5-(4-hydroxycyclohexyl)-8-((4-(pyridin-4-yl)piperazin-1-yl)methyl)pyrimido[4,5-c]isoquinolin-6(5H)-one], the figure is 63.6 nM; as for `O=c1c2cc(N3CCN4CCC[C@@H]4C3)ccc2c2cnc(NCC3CC3)nc2n1[C@H]1CC[C@H](O)CC1` [Compound 103, trans-3-((Cyclopropylmethyl)amino)-8-((R)-hexahydropyrrolo[1,2-a]pyrazin-2(1H)-yl)-5-(4-hydroxycyclohexyl)pyrimido [4,5-c]isoquinolin-6(5H)-one], 129 nM.
As for `O=c1c2cc(N3CCN(C4COC4)CC3)ccc2c2cnc(NCC3CC3)nc2n1[C@H]1CC[C@H](O)CC1` [Compound 178], the figure is 380 nM; as for `CN1CCN(Cc2ccc3c(c2)c(=O)n([C@H]2CC[C@](C)(O)CC2)c2nc(NCCC4CC4)ncc32)CC1` [Compound 29, trans-3-((2-Cyclopropylethyl)amino)-5-(4-hydroxy-4-methylcyclohexyl)-8-((4-methylpiperazin-1-yl)methyl)pyrimido[4,5-c]isoquinolin-6(5H)-one], 6.2 nM.
In the case of `CCCCNc1ncc2c3ccc(CN4CCNCC4)cc3c(=O)n([C@H]3CC[C@H](O)CC3)c2n1` [Compound 44, trans-3-(Butylamino)-5-(4-hydroxycyclohexyl)-8-(piperazin-1-ylmethyl)pyrimido[4,5-c]isoquinolin-6(5H)-one] it was 66 nM.
`CCCCNc1ncc2c3ccc(CN4CCN(C)CC4)cc3c(=O)n([C@H]3CC[C@H](N(C)C)C3)c2n1` [Compound 236, 3-(butylamino)-5-((1S,3S)-3-(dimethylamino)cyclopentyl)-8-((4-methylpiperazin-1-yl)methyl)pyrimido[4,5-c]isoquinolin-6(5H)-one]: the EC50 was 130 nM.
In the case of `O=c1c2cc(CN3CCC(c4ccncc4)CC3)ccc2c2cnc(NCC3CC3)nc2n1[C@H]1CC[C@H](O)CC1` [Compound 217, trans-3-((Cyclopropylmethyl)amino)-5-(4-hydroxycyclohexyl)-8-((4-(pyridin-4-yl)piperidin-1-yl)methyl)pyrimido[4,5-c]isoquinolin-6(5H)-one] it was 4.1 nM; in that of `CN1CCN(Cc2ccc3c(c2)c(=O)n([C@H]2CC[C@H](OC(N)=O)CC2)c2nc(N(CC4CC4)C(N)=O)ncc32)CC1` [Compound 183], 13800 nM.
As for `CCCCNc1ncc2c3ccc(N4CCN5CCC4CC5)cc3c(=O)n([C@H]3CC[C@H](O)CC3)c2n1` [Compound 81, trans-8-(1,4-Diazabicyclo[3.2.2]nonan-4-yl)-3-(butylamino)-5-(4-hydroxycyclohexyl)pyrimido[4,5-c]isoquinolin-6(5H)-one], the figure is 13.9 nM.
As for `O=c1c2cc(CN3CCNCC3)ccc2c2cnc(NCC3CC3)nc2n1[C@H]1CC[C@H](O)CC1` [Compound 171], the figure is 309 nM; as for `O=c1c2cc(CN3CCC(O)(c4ccncc4)CC3)ccc2c2cnc(NCC3CC3)nc2n1[C@H]1CC[C@H](O)CC1` [Compound 228, trans-3-((Cyclopropylmethyl)amino)-8-((4-hydroxy-4-(pyridin-4-yl)piperidin-1-yl)methyl)-5-(4-hydroxycyclohexyl)pyrimido[4,5-c]isoquinolin-6(5H)-one], 26.6 nM; as for `O=c1c2cc(N3CCn4ncnc4C3)ccc2c2cnc(NCC3CC3)nc2n1[C@H]1CC[C@H](O)CC1` [Compound 164], 296 nM.
As for `CN1CCN(c2ccc3c(c2)c(=O)n([C@H]2CC[C@H](O)CC2)c2nc(NCC4CC4)ncc32)CC1` [Compound 87, trans-3-((Cyclopropylmethyl)amino)-5-(4-hydroxycyclohexyl)-8-(4-methylpiperazin-1-yl)pyrimido[4,5-c]isoquinolin-6(5H)-one], the EC50 was 115 nM.
In the case of `CN1CCN(Cc2ccc3c(c2)c(=O)n(C2CCOCC2)c2nc(NCC4CC4)ncc32)CC1` [Compound 133] it was 1670 nM; in that of `O=c1c2cc(CN3CCNCC3)ccc2c2cnc(NCC3CC3)nc2n1[C@H]1CC[C@H](O)CC1` [Compound 54, trans-3-((Cyclopropylmethyl)amino)-5-(4-hydroxycyclohexyl)-8-(piperazin-1-ylmethyl)pyrimido[4,5-c]isoquinolin-6(5H)-one], 309 nM; in that of `CC(C)N1CCN(c2ccc3c(c2)c(=O)n([C@H]2CC[C@H](O)CC2)c2nc(NCC4CC4)ncc32)CC1` [Compound 176], 97.5 nM.
In the case of `CC1(O)CCN(Cc2ccc3c(c2)c(=O)n(C2CCC(O)CC2)c2nc(NCC4CC4)ncc32)CC1` (stereo not shown) [Compound 145, 3-((cyclopropylmethyl)amino)-8-((4-hydroxy-4-methylpiperidin-1-yl)methyl)-5-((1s,4s)-4-hydroxycyclohexyl)pyrimido[4,5-c]isoquinolin-6(5H)-one] it was 25.7 nM; in that of `CCCCNc1ncc2c3ccc(N4CCN(C)CC4)cc3c(=O)n(C3CC4(CC(O)C4)C3)c2n1` (stereo not shown) [Compound 88, 3-(Butylamino)-5-(6-hydroxyspiro[3.3]heptan-2-yl)-8-(4-methylpiperazin-1-yl)pyrimido[4,5-c]isoquinolin-6(5H)-one], 51 nM.
As for `CC(C)CCNc1ncc2c3ccc(CN4CCN(c5ccncc5)CC4)cc3c(=O)n([C@H]3CC[C@H](O)CC3)c2n1` [Compound 223, trans-5-(4-Hydroxycyclohexyl)-3-(isopentylamino)-8-((4-(pyridin-4-yl)piperazin-1-yl)methyl)pyrimido[4,5-c]isoquinolin-6(5H)-one], the figure is 14.3 nM; as for `O=c1c2cc(CN3CCN(c4ccncn4)CC3)ccc2c2cnc(NC3CCC3)nc2n1[C@H]1CC[C@H](O)CC1` [Compound 226, trans-3-(Cyclobutylamino)-5-(4-hydroxycyclohexyl)-8-((4-(pyrimidin-4-yl)piperazin-1-yl)methyl)pyrimido[4,5-c]isoquinolin-6(5H)-one], 10.9 nM.
In the case of `CC(C)(C)OC(=O)N1CCC(Cc2ccc3c(c2)c(=O)n([C@H]2CC[C@H](O)CC2)c2nc(NCC4CC4)ncc32)CC1` [Compound 206], the EC50 was determined as 1280 nM.
In the case of `CN1CCN(Cc2ccc3c(c2)c(=O)n([C@H]2CC[C@H](O)CC2)c2nc(NC4CC(F)C4)ncc32)CC1` (stereo partly drawn) [Compound 13, trans-3-((3-Fluorocyclobutyl)amino)-5-(4-hydroxycyclohexyl)-8-((4-methylpiperazin-1-yl)methyl)pyrimido[4,5-c]isoquinolin-6(5H)-one] it was 144 nM; in that of `CCC(F)(F)CNc1ncc2c3ccc(CN4CCN(C)CC4)cc3c(=O)n([C@H]3CC[C@H](O)CC3)c2n1` [Compound 24, trans-3-((2,2-Difluorobutyl)amino)-5-(4-hydroxycyclohexyl)-8-((4-methylpiperazin-1-yl)methyl)pyrimido[4,5-c]isoquinolin-6(5H)-one], 221 nM.
As for `CC(C)N1CCN(Cc2ccc3c(c2)c(=O)n([C@H]2CC[C@H](O)CC2)c2nc(NCC4CCC4)ncc32)CC1` [Compound 33, trans-3-((Cyclobutylmethyl)amino)-5-(4-hydroxycyclohexyl)-8-((4-isopropylpiperazin-1-yl)methyl)pyrimido[4,5-c]isoquinolin-6(5H)-one], the figure is 4.6 nM; as for `CCCCNc1ncc2c3ccc(CN4CCN(C)CC4)cc3c(=O)n([C@H]3CC[C@H](NC(=O)OC(C)(C)C)C3)c2n1` [Compound 231, tert-butyl ((1S,3S)-3-(3-(butylamino)-8-((4-methylpiperazin-1-yl)methyl)-6-oxopyrimido[4,5-c]isoquinolin-5(6H)-yl)cyclopentyl)carbamate], 1910 nM; as for `CCCCNc1ncc2c3ccc(N4CCN(C)CC4)cc3c(=O)n([C@H]3CC[C@H](O)CC3)c2n1` [Compound 61, trans-3-(Butylamino)-5-(4-hydroxycyclohexyl)-8-(4-methylpiperazin-1-yl)pyrimido[4,5-c]isoquinolin-6(5H)-one], 23.1 nM.
As to `CC1(O)CCC(n2c(=O)c3cc(CN4CCN(C5COC5)CC4)ccc3c3cnc(NCC4CC4)nc32)CC1` (stereo not shown) [Compound 148], the EC50 was 16.8 nM.
